Experimental data reported in ChEMBL document CHEMBL1149697, “Identification of dissociated non-steroidal glucocorticoid receptor agonists” (Bioorg Med Chem Lett, 2007).

Experiments:
Glucocorticoid receptor = target: T1, Glucocorticoid receptor (Homo sapiens, UniProt P04150)
T1 sequence (P04150 whole entry): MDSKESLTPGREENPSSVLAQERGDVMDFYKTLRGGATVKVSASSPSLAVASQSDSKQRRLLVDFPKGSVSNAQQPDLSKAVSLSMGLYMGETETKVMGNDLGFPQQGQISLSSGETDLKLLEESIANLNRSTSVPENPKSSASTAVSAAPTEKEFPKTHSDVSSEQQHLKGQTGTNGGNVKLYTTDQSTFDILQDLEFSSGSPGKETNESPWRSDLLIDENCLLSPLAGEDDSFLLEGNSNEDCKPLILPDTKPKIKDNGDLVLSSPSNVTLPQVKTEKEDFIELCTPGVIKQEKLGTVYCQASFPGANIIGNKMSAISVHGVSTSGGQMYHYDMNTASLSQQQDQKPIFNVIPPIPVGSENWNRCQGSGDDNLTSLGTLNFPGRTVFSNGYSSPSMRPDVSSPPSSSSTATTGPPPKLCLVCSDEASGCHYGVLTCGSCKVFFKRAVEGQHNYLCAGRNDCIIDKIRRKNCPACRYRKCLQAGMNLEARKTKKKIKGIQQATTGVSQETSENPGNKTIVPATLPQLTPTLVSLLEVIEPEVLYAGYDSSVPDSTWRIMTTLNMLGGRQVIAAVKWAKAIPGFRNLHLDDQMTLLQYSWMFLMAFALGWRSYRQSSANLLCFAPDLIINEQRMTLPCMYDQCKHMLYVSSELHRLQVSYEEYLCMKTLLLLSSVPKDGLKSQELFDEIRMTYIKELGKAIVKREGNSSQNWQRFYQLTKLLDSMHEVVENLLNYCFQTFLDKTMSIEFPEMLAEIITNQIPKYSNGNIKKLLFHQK

Progesterone receptor = target: T2, Progesterone receptor (Homo sapiens, UniProt P06401); assay: Displacement of TAMRA labeled mifepristone at human progesterone receptor in insect cell
T2 sequence (P06401 whole entry): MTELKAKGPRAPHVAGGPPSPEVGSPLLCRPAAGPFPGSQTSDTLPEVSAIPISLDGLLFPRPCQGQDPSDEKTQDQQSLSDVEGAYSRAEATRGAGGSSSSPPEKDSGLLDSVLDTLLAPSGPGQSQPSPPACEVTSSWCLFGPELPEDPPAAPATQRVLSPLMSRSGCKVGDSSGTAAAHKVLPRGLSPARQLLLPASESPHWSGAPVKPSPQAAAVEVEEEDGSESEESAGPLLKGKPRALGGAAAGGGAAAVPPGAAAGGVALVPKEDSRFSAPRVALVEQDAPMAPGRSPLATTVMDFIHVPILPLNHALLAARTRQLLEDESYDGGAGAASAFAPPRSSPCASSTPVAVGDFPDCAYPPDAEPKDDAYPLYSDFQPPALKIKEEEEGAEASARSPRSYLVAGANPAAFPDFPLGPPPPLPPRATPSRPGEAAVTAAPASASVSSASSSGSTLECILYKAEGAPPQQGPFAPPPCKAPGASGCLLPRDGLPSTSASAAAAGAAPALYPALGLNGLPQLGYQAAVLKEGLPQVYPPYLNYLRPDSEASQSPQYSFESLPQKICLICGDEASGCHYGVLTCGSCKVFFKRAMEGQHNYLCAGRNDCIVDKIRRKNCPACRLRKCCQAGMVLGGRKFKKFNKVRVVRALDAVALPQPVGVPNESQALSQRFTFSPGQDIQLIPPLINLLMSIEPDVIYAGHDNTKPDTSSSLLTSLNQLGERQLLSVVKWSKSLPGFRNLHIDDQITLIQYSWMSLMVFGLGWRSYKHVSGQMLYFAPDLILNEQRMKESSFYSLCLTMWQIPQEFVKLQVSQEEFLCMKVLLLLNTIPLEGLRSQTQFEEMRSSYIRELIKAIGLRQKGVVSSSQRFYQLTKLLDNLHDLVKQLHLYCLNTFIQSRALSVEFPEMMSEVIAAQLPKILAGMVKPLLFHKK

[1] = target: T3, Mineralocorticoid receptor (Homo sapiens, UniProt P08235); assay: Displacement of TAMRA labeled dexamethasone at human mineralocorticoid receptor in insect cell
T3 sequence (P08235 whole entry): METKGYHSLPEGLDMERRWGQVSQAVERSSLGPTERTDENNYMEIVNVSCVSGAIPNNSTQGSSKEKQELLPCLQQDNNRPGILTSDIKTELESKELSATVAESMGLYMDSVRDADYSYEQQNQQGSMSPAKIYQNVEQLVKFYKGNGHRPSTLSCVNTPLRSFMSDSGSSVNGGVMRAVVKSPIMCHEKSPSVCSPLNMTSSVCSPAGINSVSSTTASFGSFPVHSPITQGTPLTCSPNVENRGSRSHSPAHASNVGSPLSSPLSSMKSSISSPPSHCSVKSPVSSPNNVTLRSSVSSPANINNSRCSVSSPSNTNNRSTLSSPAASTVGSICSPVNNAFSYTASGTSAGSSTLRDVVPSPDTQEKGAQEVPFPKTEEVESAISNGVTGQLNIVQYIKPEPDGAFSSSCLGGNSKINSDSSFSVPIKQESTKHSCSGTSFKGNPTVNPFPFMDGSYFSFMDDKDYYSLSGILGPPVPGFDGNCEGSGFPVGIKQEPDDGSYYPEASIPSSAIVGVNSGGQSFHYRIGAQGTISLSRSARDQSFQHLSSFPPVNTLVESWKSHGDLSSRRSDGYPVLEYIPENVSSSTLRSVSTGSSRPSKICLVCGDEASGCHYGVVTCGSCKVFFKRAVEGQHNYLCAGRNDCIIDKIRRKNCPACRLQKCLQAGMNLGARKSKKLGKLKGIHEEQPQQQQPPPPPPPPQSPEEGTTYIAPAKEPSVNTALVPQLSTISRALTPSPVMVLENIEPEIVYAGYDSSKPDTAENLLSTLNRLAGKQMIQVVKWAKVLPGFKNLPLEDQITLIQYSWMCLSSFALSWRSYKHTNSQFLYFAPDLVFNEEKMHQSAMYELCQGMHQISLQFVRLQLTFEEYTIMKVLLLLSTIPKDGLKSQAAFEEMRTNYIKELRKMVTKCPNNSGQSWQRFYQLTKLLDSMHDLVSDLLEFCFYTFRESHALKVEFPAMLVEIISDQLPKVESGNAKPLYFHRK

HFF [2] = assay: Antiinflammatory activity assessed as inhibition of IL1 stimulated IL6 production in HFF cells by transrepression assay; assay type: functional, cell-based; conditions: Homo sapiens
HFF [3] = assay: Antiinflammatory activity assessed as inhibition of IL6 production in HFF cells by transrepression assay relative to dexamethasone; assay type: functional, Homo sapiens
HFF [4] = assay: Antiinflammatory activity assessed as upregulation of aromatase in HFF cells by transactivation assay; assay type: functional, cell-based; conditions: Homo sapiens
HFF [5] = assay: Antiinflammatory activity assessed as upregulation of aromatase in HFF cells by transactivation assay relative to dexamethasone; assay type: functional, Homo sapiens; set-up: concentration or dose not given beside the values

SMILES | IC50 (Glucocorticoid receptor) [nM] | IC50 (Progesterone receptor) [nM] | IC50 [1] [nM] | EC50 (HFF [2]) [nM] | Efficacy (HFF [3]) [%] | EC50 (HFF [4]) [nM] | Activity (HFF [5]) [%]
COc1ccc(F)cc1C(C)(C)CC(O)(c1ccccc1)C(F)(F)F (stereo not given) | > 1600 | > 1600 | 1600 |  |  |  | 
COc1ccc(F)cc1C(C)(C)CC(O)(Cc1cccc2ccccc12)C(F)(F)F (stereo not given) | 120 | > 2000 | 1400 |  |  |  | 
COc1ccc(F)cc1C(C)(C)CC(O)(Cc1ccc(C#N)cc1Cl)C(F)(F)F (stereo not given) | 17 | 140 | 320 | 20 | 60 | 30 | 20
COc1ccc(F)cc1C(C)(C)CC(O)(Cc1ccc(C)c2ccccc12)C(F)(F)F (stereo not given) | 58 | 1200 | 1050 | > 2000 | 9 |  | 
COc1ccc(F)cc1C(C)(C)CC(O)(Cc1ccc(C#N)cc1)C(F)(F)F (stereo not given) | 30 | 345 | 510 | > 2000 | 0 | > 2000 | 0
COc1ccc(F)cc1C(C)(C)CC(O)(Cc1ccc(C#N)cc1F)C(F)(F)F (stereo not given) | 22 | 280 | 500 | > 2000 | 40 | 660 | 15
COc1ccc(F)cc1C(C)(C)CC(O)(Cc1ccccc1Cl)C(F)(F)F (stereo not given) | 101 | > 2000 | 715 |  |  |  | 
COc1ccc(F)cc1C(C)(C)CC(O)(Cc1cc(Cl)cc(C#N)c1)C(F)(F)F (stereo not given) | 27 | > 2000 | 730 | > 2000 | 46 | 4750 | 53
COc1ccc(F)cc1C(C)(C)CC(O)(Cc1cccc(C#N)c1)C(F)(F)F (stereo not given) | 81 | > 2000 | 400 |  |  |  | 
COc1ccc(F)cc1C(C)(C)CC(O)(Cc1ccc(C=O)cc1Cl)C(F)(F)F (stereo not given) | 19 | 1800 | 345 |  |  |  | 
C[C@@H]1C[C@H]2[C@@H]3CCC4=CC(=O)C=C[C@]4(C)[C@@]3(F)[C@@H](O)C[C@]2(C)[C@@]1(O)C(=O)CO [DEXAMETHASONE] |  |  |  | 0.5 |  | 2 | 
COc1ccc(CC(O)(CC(C)(C)c2cc(F)ccc2OC)C(F)(F)F)cc1 (stereo not given) | 1250 | > 1420 | > 1420 |  |  |  | 
COc1ccc(F)cc1C(C)(C)CC(O)(Cc1c(Cl)cccc1Cl)C(F)(F)F (stereo not given) | 580 | > 2000 | 1100 |  |  |  | 
COc1ccc(F)cc1C(C)(C)CC(O)(Cc1ccccc1Br)C(F)(F)F (stereo not given) | 205 | > 512 | > 512 |  |  |  | 
COc1ccc(F)cc1C(C)(C)CC(O)(Cc1cc(C)cc(C)c1)C(F)(F)F (stereo not given) | 55 | > 354 | 220 | 280 | 55 | 285 | 80
COc1ccc(F)cc1C(C)(C)CC(O)(Cc1cccc(C)c1)C(F)(F)F (stereo not given) | 580 | > 1050 | > 1050 |  |  |  | 
COc1ccc(F)cc1C(C)(C)CC(O)(Cc1ccc2ccccc2c1)C(F)(F)F (stereo not given) | 275 | > 2000 | > 2000 |  |  |  | 

SMILES | IC50 (Glucocorticoid receptor) [nM] | IC50 (Progesterone receptor) [nM] | IC50 [1] [nM] | EC50 (HFF [2]) [nM] | Efficacy (HFF [3]) [%] | EC50 (HFF [4]) [nM] | Activity (HFF [5]) [%]
COc1ccc(F)cc1C(C)(C)CC(O)(C(=O)Nc1ccc2c(=O)onc(C)c2c1)C(F)(F)F (stereo not given) |  |  |  | > 2000 | 20 | > 2000 | 0
COc1ccc(F)cc1C(C)(C)CC(O)(Cc1cc(C)cc(Cl)c1)C(F)(F)F (stereo not given) | 46 | > 2000 | 940 | 125 | 79 | 245 | 80
COc1ccc(F)cc1C(C)(C)CC(O)(CCc1ccccc1)C(F)(F)F (stereo not given) | > 1300 | > 1300 | > 1300 |  |  |  | 
COc1ccc(F)cc1C(C)(C)CC(O)(Cc1ccc(C=O)cc1)C(F)(F)F (stereo not given) | 20 | > 2000 | 650 |  |  |  | 
COc1ccc(F)cc1C(C)(C)CC(O)(Cc1ccccc1C)C(F)(F)F (stereo not given) | 855 | > 1130 | > 1130 |  |  |  | 
COc1ccc(F)cc1C(C)(C)CC(O)(Cc1ccccc1)C(F)(F)F (stereo not given) | 610 | > 1300 | > 1300 |  |  |  | 
COc1ccc(F)cc1C(C)(C)CC(O)(Cc1ccc(C)cc1)C(F)(F)F (stereo not given) | 945 | > 2000 | > 2000 |  |  |  | 
COc1ccc(F)cc1C(C)(C)CC(O)(Cc1cccc(Cl)c1)C(F)(F)F (stereo not given) | 550 | > 2000 | > 2000 |  |  |  | 
COc1ccc(F)cc1C(C)(C)CC(O)(CCCc1ccccc1)C(F)(F)F (stereo not given) | 1130 | > 740 | > 740 |  |  |  | 
COc1ccc(F)cc1C(C)(C)CC(O)(Cc1cccc(Cl)c1Cl)C(F)(F)F (stereo not given) | 76 | 1300 | 900 |  |  |  | 
COc1ccc(F)cc1C(C)(C)CC(O)(Cc1cc(Cl)cc(Cl)c1)C(F)(F)F (stereo not given) | 60 | > 2000 | 760 |  |  |  | 
COc1ccc(F)cc1C(C)(C)CC(O)(Cc1ccccc1F)C(F)(F)F (stereo not given) | 370 | > 2000 | 1350 |  |  |  | 
COc1ccc(F)cc1C(C)(C)CC(O)(Cc1ccc(Cl)cc1Cl)C(F)(F)F (stereo not given) | 68 | 665 | 875 |  |  |  | 
COc1ccc(F)cc1C(C)(C)CC(O)(Cc1ccc(Cl)cc1)C(F)(F)F (stereo not given) | 340 | > 2000 | 1800 |  |  |  | 
COc1ccc(F)cc1C(C)(C)CC(O)(Cc1c(C)ccc2ccccc12)C(F)(F)F (stereo not given) | 64 | > 2000 | 450 |  |  |  | 
COc1ccc(F)cc1C(C)(C)CC(O)(Cc1cc(Cl)ccc1Cl)C(F)(F)F (stereo not given) | 45 | > 2000 | 535 |  |  |  | 
